Data on 27 compounds can be found in patent EP3755703B1, “N-(PHENYL)-2-(PHENYL)PYRIMIDINE-4-CARBOXAMIDE DERIVATIVES AND RELATED COMPOUNDS AS HPK1 INHIBITORS FOR TREATING CANCER” (Incyte Corporation, priority 2018, dated 2019).

SMILES strings stand for the structures. Where only a bound is given, the exact number is not on record here.

The target in this test is T1, HPK1 (Homo sapiens, UniProt Q92918).
T1 construct: purchased SignalChem M23-11G
T1 sequence (Q92918 1-346 limits assumed): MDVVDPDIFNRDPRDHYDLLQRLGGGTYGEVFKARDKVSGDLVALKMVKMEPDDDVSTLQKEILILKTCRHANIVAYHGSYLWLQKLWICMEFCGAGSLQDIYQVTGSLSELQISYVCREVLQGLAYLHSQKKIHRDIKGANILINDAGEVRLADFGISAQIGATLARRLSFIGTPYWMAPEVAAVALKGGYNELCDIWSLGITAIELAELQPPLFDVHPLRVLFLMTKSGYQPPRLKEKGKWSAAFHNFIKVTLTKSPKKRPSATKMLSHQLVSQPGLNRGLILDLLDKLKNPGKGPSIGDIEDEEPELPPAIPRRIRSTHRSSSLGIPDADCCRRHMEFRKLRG
Briefly: HPK1 Kinase Binding Assay. The note with it: LanthaScreen tracer 222, one hour incubation at 25 °C. How it is done:
A stock solution of 1 mM test compound was prepared in DMSO. The compound plate was prepared by 3-fold and 11-point serial dilutions. 0.1 µL of the compound in DMSO was transferred from the compound plate to the white 384 well polystyrene plates. The assay buffer contained 50 mM HEPES, pH 7.5, 0.01% Tween-20, 5 mM MgCl2, 0.01% BSA, and 5 mM DTT. 5 µL of 4 nM active HPK1 (SignalChem M23-11G) prepared in the buffer was added to the plate. The enzyme concentration given was based on the given stock concentration reported by the vender. […] After one hour incubation at 25 °C, the plates were read on a PHERAstar FS plate reader (BMG Labtech). Ki values were determined.
Consider `COc1cccc(F)c1-c1nccc(C(=O)Nc2cc(F)ccc2N2CCC[C@@H]2CN)n1` [Example 3, (R)-N-(2-(2-(Aminomethyl)pyrrolidin-1-yl)-5-fluorophenyl)-2-(2-fluoro-6-methoxyphenyl)pyrimidine-4-carboxamide], for which the Ki was under 100 nM.

`COc1cccc(F)c1-c1nccc(C(=O)Nc2cc(F)ccc2N2CCC[C@@H]2CO)n1` [Example 4, (R)-N-(5-Fluoro-2-(2-(hydroxymethyl)pyrrolidin-1-yl)phenyl)-2-(2-fluoro-6-methoxyphenyl)pyrimidine-4-carboxamide] returned a Ki of under 100 nM.

The compound `COC[C@H]1CCCN1c1ccc(F)cc1NC(=O)c1ccnc(-c2c(F)cccc2OC)n1` [Example 5, (R)-N-(5-Fluoro-2-(2-(methoxymethyl)pyrrolidin-1-yl)phenyl)-2-(2-fluoro-6-methoxyphenyl)pyrimidine-4-carboxamide] yielded a Ki of 100 to 500 nM.

Take `COc1cccc(F)c1-c1nccc(C(=O)Nc2cc(F)ccc2N2C[C@@H](O)C[C@@H]2C)n1` [Example 7, N-(5-Fluoro-2-((2S,4S)-4-hydroxy-2-methylpyrrolidin-1-yl)phenyl)-2-(2-fluoro-6-methoxyphenyl)pyrimidine-4-carboxamide]: the Ki was under 100 nM.

`COc1cccc(F)c1-c1nccc(C(=O)Nc2cc(F)ccc2N2CCCC2c2ccccn2)n1` (stereo not drawn) [Example 8, N-(5-Fluoro-2-(2-(pytidin-2-yl)pyrrolidin-1-yl)phenyl)-2-(2-fluoro-6-methoxyphenyl)pyrimidine-4-carboxamide]: the Ki was in the range of 500 to 5000 nM.

`COc1cccc(F)c1-c1nccc(C(=O)Nc2cc(F)ccc2N2CCC3CNCC32)n1` (stereo not drawn) [Example 9, N-(5-Fluoro-2-(hexahydropyrrolo[3,4-b]pyrrol-1(2H)-yl)phenyl)-2-(2-fluoro-6-methoxyphenyl)pyrimidine-4-carboxamide] displayed a Ki of 500 to 5000 nM.

`COc1cccc(F)c1-c1nccc(C(=O)Nc2cc(F)ccc2N2CCNC[C@H]2C)n1` [Example 10] showed a Ki of under 100 nM.

`COc1cccc(F)c1-c1nccc(C(=O)Nc2cc(F)ccc2N2CCNC[C@@H]2CO)n1` [Example 11, (R)-N-(5-Fluoro-2-(2-(hydroxymethyl)piperazin-1-yl)phenyl)-2-(2-fluoro-6-methoxyphenyl)pyrimidine-4-carboxamide] had a Ki of under 100 nM.

As to `COc1cccc(F)c1-c1nccc(C(=O)Nc2cc(F)ccc2N2CCOCC2CO)n1` (stereo not drawn) [Example 12, N-(5-Fluoro-2-(3-(hydroxymethyl)morpholino)phenyl)-2-(2-fluoro-6-methoxyphenyl)pyrimidine-4-carboxamide], the Ki is under 100 nM.

In turn, `COc1cccc(F)c1-c1nccc(C(=O)Nc2cc(F)cc(Br)c2N2C[C@H]3C[C@@H]2CN3)n1` [Example 13, N-(2-((1R,4R)-2,5-Diazabicyclo[2.2.1]heptan-2-yl)-3-bromo-5-fluorophenyl)-2-(2-fluoro-6-methoxyphenyl)pyrimidine-4-carboxamide] displayed a Ki of under 100 nM.

Compound `COc1cccc(F)c1-c1nccc(C(=O)Nc2cccc(C#N)c2N2C[C@H]3C[C@@H]2CN3)n1` [Example 14, N-(2-((1R,4R)-2,5-Diazabicyclo[2.2.1]heptan-2-yl)-3-cyanophenyl)-2-(2-fluoro-6-methoxyphenyl)pyrimidine-4-carboxamide] registered an inhibitory constant (Ki) of under 100 nM.

Compound `COc1cccc(F)c1-c1nccc(C(=O)Nc2cc(F)cc(-c3cccnc3)c2N2C[C@H]3C[C@@H]2CN3)n1` [Example 15, N-(2-((1R,4R)-2,5-Diazabicyclo[2.2.1]heptan-2-yl)-5-fluoro-3-(pyridin-3-yl)phenyl)-2-(2-fluoro-6-methoxyphenyl)pyrimidine-4-carboxamide] displayed a Ki of under 100 nM.

`COc1cccc(F)c1-c1nccc(C(=O)Nc2cc(F)cc(-c3cnn(C)c3)c2N2C[C@H]3C[C@@H]2CN3)n1` [Example 16, N-(2-((1R,4R)-2,5-Diazabicyclo[2.2.1]heptan-2-yl)-5-fluoro-3-(1-methyl-1H pyrazol-4-yl)phenyl)-2-(2-fluoro-6-methoxyphenyl)pyrimidine-4-carboxamide] returned a Ki of under 100 nM.

Regarding `COc1cccc(F)c1-c1nccc(C(=O)Nc2cc(F)c(CO)cc2N2C[C@@H]3C[C@H]2CN3)n1` [Example 17, N-(2-((1S,4S)-2,5-Diazabicyclo[2.2.1]heptan-2-yl)-5-fluoro-4-(hydroxymethyl)phenyl)-2-(2-fluoro-6-methoxyphenyl)pyrimidine-4-carboxamide], the Ki is under 100 nM.

In the case of `COc1cccc(F)c1-c1nccc(C(=O)Nc2cc(F)c(Br)cc2N2C[C@@H]3C[C@H]2CN3)n1` [Example 18, N-(2-((1S,4S)-2,5-Diazabicyclo[2.2.1]heptan-2-yl)-4-bromo-5-fluorophenyl)-2-(2-fluoro-6-methoxyphenyl)pyrimidine-4-carboxamide], the Ki is […].

On to `COc1cccc(F)c1-c1nccc(C(=O)Nc2cc(F)c(-c3cnn(C)c3)cc2N2C[C@@H]3C[C@H]2CN3)n1` [Example 19, N-(2-((1S,4S)-2,5-Diazabicyclo[2.2.1]heptan-2-yl)-5-fluoro-4-(1-methyl-1H-pyrazol-4-yl)phenyl)-2-(2-fluoro-6-methoxyphenyl)pyrimidine-4-carboxamide], for which the Ki was […].

In turn, `COc1cccc(F)c1-c1nccc(C(=O)Nc2cc(F)c(-c3ccc(CO)nc3)cc2N2C[C@@H]3C[C@H]2CN3)n1` [Example 20, N-(2-((1S,4S)-2,5-Diazabicyclo[2.2.1]heptan-2-yl)-5-fluoro-4-(6-(hydroxymethyl)pyridin-3-yl)phenyl)-2-(2-fluoro-6-methoxyphenyl)pyrimidine-4-carboxamide] gave a Ki of under 100 nM.

Consider `COc1cccc(F)c1-c1nccc(C(=O)Nc2ccc(-c3c(C)nn(C)c3C)cc2N2C[C@@H]3C[C@H]2CN3)n1` [Example 27, N-(2-((1S,4S)-2,5-Diazabicyclo[2.2.1]heptan-2-yl)-4-(1,3,5-trimethyl-1H-pyrazol-4-yl)phenyl)-2-(2-fluoro-6-methoxyphenyl)pyrimidine-4-carboxamide], for which the Ki was under 100 nM.

Consider `COc1cccc(F)c1-c1nccc(C(=O)Nc2cc(F)c(CN3CCOCC3)cc2N2C[C@@H]3C[C@H]2CN3)n1` [Example 30, N-(2-((1S,4S)-2,5-Diazabicyclo[2.2.1]heptan-2-yl)-5-fluoro-4-(morpholinomethyl)phenyl)-2-(2-fluoro-6-methoxyphenyl)pyrimidine-4-carboxamide], for which the Ki is under 100 nM.

As for `COc1cccc(F)c1-c1nccc(C(=O)Nc2cc(F)c(CNC3CCC3)cc2N2C[C@@H]3C[C@H]2CN3)n1` [Example 31, N-(2-((1S,4S)-2,5-Diazabicyclo[2.2.1]heptan-2-yl)-4-((cyclobutylamino)methyl)-5-fluorophenyl)-2-(2-fluoro-6-methoxyphenyl)pyrimidine-4-carboxamide], the Ki is under 100 nM.

`CCN1C[C@H]2C[C@@H]1CN2c1ccc(F)cc1NC(=O)c1ccnc(-c2c(F)cccc2OC)n1` [Example 32, N-(2-((1R,4R)-5-Ethyl-2,5-diazabicyclo[2.2.1]heptan-2-yl)-5-fluorophenyl)-2-(2-fluoro-6-methoxyphenyl)pyrimidine-4-carboxamide] returned a Ki of under 100 nM.

Turning to `COc1cccc(F)c1-c1nccc(C(=O)Nc2cc(F)ccc2N2C[C@H]3C[C@@H]2CN3CCO)n1` [Example 33, N-(5-Fluoro-2-((1R,4R)-5-(2-hydroxyethyl)-2,5-diazabicyclo[2.2.1]heptan-2-yl)phenyl)-2-(2-fluoro-6-methoxyphenyl)pyrimidine-4-carboxamide], the Ki was under 100 nM.

On to `CCCNC(=O)N1C[C@H]2C[C@@H]1CN2c1ccc(F)cc1NC(=O)c1ccnc(-c2c(F)cccc2OC)n1` [Example 34, (1R,4R)-5-(4-Fluoro-2-(2-(2-fluoro-6-methoxyphenyl)pyrimidine-4-carboxamido)phenyl)-N-propyl-2,5-diazabicyclo[2.2.1]heptane-2-carboxamide], for which the Ki is under 100 nM.

As to `COc1ccc(N2C[C@H]3C[C@@H]2CN3)c(NC(=O)c2ccnc(-c3c(F)cccc3OC)n2)c1` [Example 35, N-(2-((1R,4R)-2,5-Diazabicyclo[2.2.1]heptan-2-yl)-5-methoxyphenyl)-2-(2-fluoro-6-methoxyphenyl)pyrimidine-4-carboxamide], the inhibition constant (Ki) is under 100 nM.

Compound `COc1cccc(F)c1-c1nccc(C(=O)Nc2cc(CO)ccc2N2C[C@H]3C[C@@H]2CN3)n1` [Example 36, N-(2-((1R,4R)-2,5-Diazabicyclo[2.2.1]heptan-2-yl)-5-(hydroxymethyl)phenyl)-2-(2-fluoro-6-methoxyphenyl)pyrimidine-4-carboxamide] showed an inhibition constant (Ki) of under 100 nM.

Take `COc1cccc(F)c1-c1nccc(C(=O)Nc2cc(C#N)ccc2N2C[C@H]3C[C@@H]2CN3)n1` [Example 37, N-(2-((1R,4R)-2,5-Diazabicyclo[2.2.1]heptan-2-yl)-5-cyanophenyl)-2-(2-fluoro-6-methoxyphenyl)pyrimidine-4-carboxamide]: the Ki lay within 100 to 500 nM.

For `COc1cccc(F)c1-c1nccc(C(=O)Nc2ccc(N3CCC3)cc2N2C[C@@H]3C[C@H]2CN3)n1` [Example 38, N-(4-(Azetidin-1-yl)-2-((1S,4S)-2,5-diazabicyclo[2.2.1]heptan-2-yl)phenyl)-2-(2-fluoro-6-methoxyphenyl)pyrimidine-4-carboxamide], the Ki was under 100 nM.
